Measurements published in US20180228897A1, “Compositions for Vapor Phase Delivery of Active Compounds, Methods of Making and Using Same, and Kits Comprising Same” (Atmovita, LLC, priority 2015, published 2018).
Converted amounts (≈) assume the structure as drawn.

Key:
Format in all cases: physicochemical
[1] = Folate solubility in glycerin/2,3 butane diol stock compositions with co-solutes (incremental addition, heat gun, stirring)
Experimental: Folate. Folate and biotin are the two most difficult to dissolve B vitamins. Folate solubility enhancement was provided by addition of beta-cyclodextrin.
The solubility enhancement from mannitol/biotin alone was tested next. […] This is major improvement over most polar solvents (0.0016 g/L of water at 25° C.).
First the mannitol/biotin powder was mixed with 0.004 g of folate. This was added to the test tube followed by the liquid. It was stirred vigorously. Then it was heated with a heat gun until clear and no folate was suspended. […] All the liquid was moved to another test tube and the precipitate remained. Then folate was incrementally added (about 1 mg) and the solution was stirred, followed by heating** until it became clear. It would take at least 3 minutes of heating for it to become clear but as more folate was added, at least 4 minutes of heating were needed. This is how the original solution was formed. Over the course of several days there was no further precipitate or increase in viscosity. ** all heating was done with the yellow heat gun on the lowest setting (240° F.)
While heating and stirring the lid popped off and 0.75 ml of solution spilled out. Even accounting for folate lost in the spill, currently at least 8 mg of folate have been dissolved in 2.75 ml and the solution is completely clear. Heating the solution caused the lid to pop so it must be removed after about 1 minute and 30 seconds of heating prior to any further heating. It is also crucial for the solution to have been flipped upside down, preferably while warm. The solution must not be heated while flipped as this may cause a spill.
The original solution still has less much viscosity but also a slightly lower concentration of folate. It appears that somewhere beyond 8 mg folate/[…] of solution it becomes supersaturated, resulting in a thick gel upon settling and cooling. […] As long as supersaturation followed by settling is avoided, the solution will remain liquid. Another option is to study the effect of precipitation inhibitors or the sonicator to further boost solubility without increasing viscosity.
Testing was also done with only stock, stock+water and stock+ethanol but having both water and ethanol is crucial to the process. […] Despite having separated the liquid from the precipitate which was nearly all biotin/mannitol, the powder still played a role in improving folate solubility. […] The following composition (3 ml stock+0.25 ml water+0.25 ml ethanol+0.009 g of biotin) dissolved 11.2 mg of folate but became extremely viscous.
According to research on drug solubility there is a class of molecules known as hydrotropes (also known as chaotropes, […]). They reduce hydrophobic forces between non-polar solutes in polar solvents. One such molecule is niacinamide (vitamin B3 amide). These hydrotropes are planar and are either very polar or have nonpolar and polar sides like surfactants but shorter. This experiment was repeated with niacinamide as a cosolute and with a combination of B3 amide and Biotin. The biotin and B3 amide were added along with 4 mg of folate (and crushed together) wet into dry to the solution. The remaining folate was added incrementally along with heating and stirring. […] (2.5 ml stock+0.5 ml water+0.5 ml ethanol+0.0221 g of B3 amide) dissolved approximately 11 mg of folate and a small amount of precipitate. (2.5 ml stock+0.5 ml water+0.5 ml ethanol+0.0221 g of B3 amide+0.090 g pure biotin) dissolved approximately 11.4 mg of folate without precipitate. Unfortunately both solutions were extremely viscous after a few days.
Eventually the B3 amide and biotin cosolute solution was prepared using “reverse stock” instead of regular with the goal of lowering viscosity. The reverse stock is a solution of 3:7 mol glycerin and 2,3 butane diol. Initially this made folate precipitate so additional glycerin was added to achieve a 1:1 mol ratio of glycerin to 2,3 butane diol.

[2] = Increase in solubility of active compounds in the present compositions
From the text: It is advantageous to take measures to increase the solubility of an active compound or active compounds within a composition that includes components that serve as excipients such that true solubilization of the compound(s) occurs and the activity of the active compounds are retained upon transition to the vapor phase. The present disclosure is based on the result that the solubility of active compounds can be increased by surprising and unexpected amounts.

[3] = Trans resveratrol solubility in stock with solvents and co-solutes (incremental addition, heat gun); details: solution 2 (3.5 ml pure carvone) and solution 4 (3 ml carvone+0.5 ml ethanol), without heating
Experimental: The initial approach was to test non polar solvents and their effectiveness with ethanol. This included pure stock as a control, carvone, and combinations of those solvents with ethanol. The following solvents were prepared: Control—3.5 ml of pure stock, 1-1.75 ml of stock+1.75 ml of carvone+0.2 ml of 0.01 mol NaOH, 2-3.5 ml of pure carvone, 3-3 ml of stock+0.5 ml of ethanol, 4-3 ml of carvone+0.5 ml of ethanol.
Solution 1 became biphasic and cloudy. The control and solution 4 have approximately the same solubility of TR. […] Solvent was added until the TR was dissolved which occurred at 60 mg/ml of stock. This original solution was split into 5 test tubes of 1 ml each with about 0.06 g of TR.
The following solutions were made: 1—adding […] of carvone (equimolar with TR, 0.000263 mol of each) 2—adding 0.175 ml of ethanol 3-0.235 ml of carvone and 0.1 ml of ethanol. Solution 1 became cloudy because the carvone is immiscible with the stock. Several attempts to fix this were made using of ethanol and B3 amide as hydrotropes but it had no effect.
Next co-solutes were used along with the TR in stock solution. 0.000263 mol of the following were dissolved along with TR in 3 ml stock: 1-niacin, 2-caffeine, 3-gallic acid, 4-salicylic acid, 5-thiamine, 6-niacinamide, and 7-pantothenic acid. Two additional samples were prepared of 0.01 g biotin (8) and 0.04 g of -pyridoxine HCl (9). Each solution consisted of the stated amount of co-solute and 3 ml of stock. The following amounts of TR (which was added incrementally (30-40 mg) and heated for 3-4 minutes by heat gun) created the following:
To conduct further testing 0.5 ml of ethanol was added to the solutions with niacin, biotin, thiamine, and salicylic acid. The successful B3 amide solution was split into two solutions of (1.625 and 1.375 ml) with 0.25 ml of ethanol being added to the 1.375 ml solution. The results were as follows:
There was also testing with multiple solutes in 3 ml of stock:
Currently piperazine hexahydrate is being tested as it is another hydrotrope. […] It may work better with other co-solutes or ethanol.

[4] = Folate solubility in glycerin/2,3 butane diol stock compositions with co-solutes (incremental addition, heat gun, stirring); details: 2.5 ml stock+0.15 ml water+0.15 ml ethanol+0.01135 g beta-cyclodextrin+0.0182 g biotin/mannitol+0.00441 folate, without heating
[5] = Preparation of compositions (Example 3): appearance and stability of the solution; details: heated at 175° C.
[6] = Solubility of piracetam and pantothenic acid in stock; details: glycerin/2,3 butane diol stock, organic solvent or mixture

SMILES	amount of folate dissolved ([1]; 0.0221 g B3 amide, 0.0047 mg biotin, 3.5 ml equimolar glycerin and 2,3 butane diol, 0.5 ml water, 0.5 ml ethanol)	amount of folate dissolved ([1]; 2.5 ml stock+0.5 ml water+0.5 ml ethanol+0.0221 g B3 amide+0.090 g pure biotin, without precipitate)	amount of folate dissolved ([1]; 2.5 ml stock+0.5 ml water+0.5 ml ethanol+0.0221 g B3 amide, small amount of precipitate)	amount of folate dissolved ([1]; 3 ml stock+0.25 ml water+0.25 ml ethanol+0.009 g biotin)	amount of folate dissolved ([1]; 3 ml stock+0.25 ml water+0.25 ml ethanol+0.0182 g biotin/mannitol)	amount of folate dissolved ([1]; liquid only part of the same solution, no mannitol/biotin powder)	amount of folate dissolved ([1]; repeat experiment, in 2.75 ml of the biotin/mannitol solution, completely clear)	concentration beyond which solution becomes supersaturated (thick gel on settling and cooling) ([1]; stock+water+ethanol+biotin/mannitol solution)	increase in solubility [2]	dissolution in carvone solvents [3]	appearance of solution [4]	appearance of composition ([5]; 8 mg folic acid, 22.1 mg nicotinamide, 4.7 mg biotin in 3.5 ml (0.5 mol glycerin/0.5 mol propylene glycol), 0.5 ml water, 0.5 ml ethanol, flavors)	solubility [6]	appearance of composition ([5]; 0.2 grams piracetam in 1.5 ml stock, 2.0 ml fruit flavored vodka, 0.1 ml flavored glycerin)
Nc1nc2ncc(CNc3ccc(C(=O)N[C@@H](CCC(=O)O)C(=O)O)cc3)nc2c(=O)[nH]1 [folate, folic acid]	9 mg	approximately 11.4 mg	approximately 11 mg	11.2 mg	approximately 0.008 g	< 1.6 mg	at least 8 mg	> 8 mg folate/3.5 ml of solution	≤ 15,000%	easily dissolved	clear with some orange (folate) precipitate on the bottom of the vial	clear solution with flavor	–	–
NC(=O)CN1CCCC1=O [Piracetam, piracetam]	–	–	–	–	–	–	–	–	–	–	–	–	36.5 mg/mL (≈ 257 mM)	clear solution with flavor
